Reference: patent publication US9540392B2, “Thienopyrimidines” (BAYER PHARMA AKTIENGESELLSCHAFT, priority 2012, dated 2017)

Biological target: T1, human full-length MKNK1 (Homo sapiens, UniProt Q9BUB5, T385D)
T1 construct: GST (N); purchased Carna Biosciences 02-145; host or cells: insect cells (baculovirus expression system)
Experiment: MKNK1 kinase high ATP assay (TR-FRET)
Assay type: biochemical
Conditions: 2 mM ATP, after preincubation with MKNK1; read-out: MKNK1 IC50 (MKNK1 high ATP)
Protocol: MKNK1-inhibitory activity at high ATP of compounds of the present invention after their preincubation with MKNK1 was quantified employing the TR-FRET-based MKNK1 high ATP assay as described in the following paragraphs.
As substrate for the kinase reaction the biotinylated peptide biotin-Ahx-[…] (C-terminus in amide form) was used, which can be purchased e.g. from the company Biosyntan (Berlin-Buch, Germany).
For the assay 50 nL of a 100 fold concentrated solution of the test compound in DMSO was pipetted into a black low volume 384 well microtiter plate (Greiner Bio-One, Frickenhausen, Germany), 2 μL of a solution of MKNK1 in aqueous assay buffer [50 mM HEPES pH 7.5, 5 mM MgCl2, 1.0 mM dithiothreitol, 0.005% (v/v) Nonidet-P40 (Sigma)] was added and the mixture was incubated for 15 min at 22° C. to allow pre-binding of the test compounds to the enzyme before the start of the kinase reaction. Then the kinase reaction was started by the addition of 3 μL of a solution of adenosine-tri-phosphate (ATP, 3.3 mM=>final conc. in the 5 μL assay volume is 2 mM) and substrate (0.1 μM=>final conc. in the 5 μL assay volume is 0.06 μM) in assay buffer and the resulting mixture was incubated for a reaction time of 30 min at 22° C. The concentration of MKNK1 was adjusted depending of the activity of the enzyme lot and was chosen appropriate to have the assay in the linear range, typical concentrations were in the range of 0.003 μg/mL. The reaction was stopped by the addition of 5 μL of a solution of TR-FRET detection reagents (5 nM streptavidine-XL665 [Cisbio Bioassays, Codolet, France] and 1 nM anti-ribosomal protein S6 (pSer236)-antibody from Invitrogen [#44921G] and 1 nM LANCE EU-W1024 Labeled ProteinG [Perkin-Elmer, product no. AD0071]) in an aqueous EDTA-solution (100 mM EDTA, 0.1% (w/v) bovine serum albumin in 50 mM HEPES pH 7.5).
The resulting mixture was incubated for 1 h at 22° C. to allow the formation of complex between the phosphorylated biotinylated peptide and the detection reagents. Subsequently the amount of phosphorylated substrate was evaluated by measurement of the resonance energy transfer from the Eu-chelate to the streptavidine-XL. Therefore, the fluorescence emissions at 620 nm and 665 nm after excitation at 350 nm were measured in a TR-FRET reader, e.g. a Rubystar (BMG Labtechnologies, Offenburg, Germany) or a Viewlux (Perkin-Elmer). The ratio of the emissions at 665 nm and at 622 nm was taken as the measure for the amount of phosphorylated substrate.

T1 sequence (Q9BUB5 1-424 isoform Q9BUB5-2 T344D): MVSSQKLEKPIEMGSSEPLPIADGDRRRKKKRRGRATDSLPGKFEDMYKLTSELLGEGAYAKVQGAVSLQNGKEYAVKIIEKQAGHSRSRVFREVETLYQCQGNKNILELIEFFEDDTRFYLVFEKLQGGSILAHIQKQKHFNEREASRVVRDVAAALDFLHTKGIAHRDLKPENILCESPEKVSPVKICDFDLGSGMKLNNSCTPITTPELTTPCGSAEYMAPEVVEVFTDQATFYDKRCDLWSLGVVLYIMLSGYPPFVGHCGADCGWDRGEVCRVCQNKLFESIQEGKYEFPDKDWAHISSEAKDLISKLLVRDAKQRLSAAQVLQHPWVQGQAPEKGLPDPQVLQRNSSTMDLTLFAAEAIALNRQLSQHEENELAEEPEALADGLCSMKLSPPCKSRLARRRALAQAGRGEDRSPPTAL

## O=C(C1CCc2c(sc3ncnc(Nc4ccc5[nH]ncc5c4)c23)C1)N1CCN(Cc2cccnc2)CC1 (racemic) [Example 155, (RS)-[4-(1H-indazol-5-ylamino)-5,6,7,8-tetrahydro[1]benzothieno[2,3-d]pyrimidin-7-yl][4-(pyridin-3-ylmethyl)piperazin-1-yl]methanone]
  IC50: 18.3 nM

## CC(C)Oc1cc2[nH]ncc2cc1Nc1ncnc2sc3c(c12)CCC(C(=O)N1CCC2(CC2)C1)C3 (racemic) [Example 261, (RS)-5-Azaspiro[2.4]hept-5-yl{4-[(6-isopropoxy-1H-indazol-5-yl)amino]-5,6,7,8-tetrahydro[1]benzothieno[2,3-d]pyrimidin-7-yl}methanone]
  IC50: 2.3 nM

## Cn1cncc1CNC(=O)C1CCc2c(sc3ncnc(Nc4ccc5[nH]ncc5c4)c23)C1 (racemic) [Example 152, (RS)-4-(1H-indazol-5-ylamino)-N-[(1-methyl-1H-imidazol-5-yl)methyl]-5,6,7,8-tetrahydro[1]benzothieno[2,3-d]pyrimidine-7-carboxamide]
  IC50: 16.8 nM

## CCOc1cc2[nH]ncc2cc1Nc1ncnc2sc3c(c12)CCC(C(=O)N(C)C1CC1)C3 (racemic) [Example 235, (RS)—N—Cyclopropyl-4-[(6-ethoxy-1H-indazol-5-yl)amino]-N-methyl-5,6,7,8-tetrahydro[1]benzothieno[2,3-d]pyrimidine-7-carboxamide]
  IC50: 0.5 nM

## CN(C)C1CCN(C(=O)C2CCc3c(sc4ncnc(Nc5ccc6[nH]ncc6c5)c34)C2)C1 (racemic) [Example 205, (RS)-[3-(dimethylamino)pyrrolidin-1-yl][4-(1H-indazol-5-ylamino)-5,6,7,8-tetrahydro[1]benzothieno[2,3-d]pyrimidin-7-yl]methanone]
  IC50: 7.3 nM

## CCOc1cc2[nH]ncc2cc1Nc1ncnc2sc3c(c12)CCC(C(=O)N(C)C(C)(C)C)C3 (racemic) [Example 238, (RS)—N-tert-Butyl-4-[(6-ethoxy-1H-indazol-5-yl)amino]-N-methyl-5,6,7,8-tetrahydro[1]benzothieno[2,3-d]pyrimidine-7-carboxamide]
  IC50: 1.5 nM

## CCOc1cc2[nH]ncc2cc1Nc1ncnc2sc3c(c12)CCC(C(=O)N(C)C)C3 (racemic) [Example 254, (RS)-4-[(6-Ethoxy-1H-indazol-5-yl)amino]-N,N-dimethyl-5,6,7,8-tetrahydro[1]benzothieno[2,3-d]pyrimidine-7-carboxamide]
  IC50: 1.6 nM

## CN(C)CCCNC(=O)C1CCc2c(sc3ncnc(Nc4ccc5[nH]ncc5c4)c23)C1 (stereo not shown) [Example 40, N-[3-(Dimethylamino)propyl]-4-(1H-indazol-5-ylamino)-5,6,7,8-tetrahydro[1] benzothieno [2,3-d]pyrimidine-7-carboxamide]
  IC50: 7 nM

## O=C(C1CCc2c(sc3ncnc(Nc4ccc5[nH]ncc5c4)c23)C1)N1CCN(c2ccccc2)CC1 (racemic) [Example 106, (RS)-[4-(1H-indazol-5-ylamino)-5,6,7,8-tetrahydro[1]benzothieno[2,3-d]pyrimidin-7-yl](4-phenylpiperazin-1-yl)methanone]
  IC50: 14.5 nM

## CC(=O)N1CCN(CCNC(=O)C2CCc3c(sc4ncnc(Nc5ccc6[nH]ncc6c5)c34)C2)CC1 (racemic) [Example 168, (RS)-N-[2-(4-acetylpiperazin-1-yl)ethyl]-4-(1H-indazol-5-ylamino)-5,6,7,8-tetrahydro[1]benzothieno[2,3-d]pyrimidine-7-carboxamide]
  IC50: 17.4 nM

## C#CCN(C)C(=O)C1CCc2c(sc3ncnc(Nc4ccc5[nH]ncc5c4)c23)C1 (stereo not shown) [Example 35, 4-(1H-Indazol-5-ylamino)-N-methyl-N-(prop-2-yn-1-yl)-5,6,7,8-tetrahydro[1] benzothieno [2,3-d]pyrimidine-7-carboxamide]
  IC50: 5 nM

## CN(C(=O)C1CCc2c(sc3ncnc(Nc4ccc5[nH]ncc5c4)c23)C1)c1ccccc1 (racemic) [Example 91, (RS)-4-(1H-indazol-5-ylamino)-N-methyl-N-phenyl-5,6,7,8-tetrahydro[1]benzothieno[2,3-d]pyrimidine-7-carboxamide]
  IC50: 6.6 nM

## COCCNC(=O)C1CCc2c(sc3ncnc(Nc4ccc5[nH]ncc5c4)c23)C1 (stereo not shown) [Example 50, 4-(1H-Indazol-5-ylamino)-N-(2-methoxyethyl)-5,6,7,8-tetrahydro[1] benzothieno [2,3-d]pyrimidine-7-carboxamide]
  IC50: 14 nM

## CCOc1cc2[nH]ncc2cc1Nc1ncnc2sc3c(c12)CCC(C(=O)O)C3 (racemic) [Example 210, (RS)-4-[(6-Ethoxy-1H-indazol-5-yl)amino]-5,6,7,8-tetrahydro[1]benzothieno[2,3-d]pyrimidine-7-carboxylic acid]
  IC50: 73 nM

## CN(Cc1cccn1C)C(=O)C1CCc2c(sc3ncnc(Nc4ccc5[nH]ncc5c4)c23)C1 (racemic) [Example 163, (RS)-4-(1H-indazol-5-ylamino)-N-methyl-N-[(1-methyl-1H-pyrrol-2-yl)methyl]-5,6,7,8-tetrahydro[1]benzothieno[2,3-d]pyrimidine-7-carboxamide]
  IC50: 12.4 nM

## CCCN(C)C(=O)C1CCc2c(sc3ncnc(Nc4cc5cn[nH]c5cc4OCC)c23)C1 (racemic) [Example 253, (RS)-4-[(6-Ethoxy-1H-indazol-5-yl)amino]-N-methyl-N-propyl-5,6,7,8-tetrahydro[1]benzothieno[2,3-d]pyrimidine-7-carboxamide]
  IC50: 1.2 nM

## CCN(Cc1ccncc1)C(=O)C1CCc2c(sc3ncnc(Nc4ccc5[nH]ncc5c4)c23)C1 (racemic) [Example 109, (RS)-N-ethyl-4-(1H-indazol-5-ylamino)-N-(pyridin-4-ylmethyl)-5,6,7,8-tetrahydro[1]benzothieno[2,3-d]pyrimidine-7-carboxamide]
  IC50: 8 nM

## CC(C)NC(=O)C1CCc2c(sc3ncnc(Nc4cc5cn[nH]c5cc4F)c23)C1 (racemic) [Example 63, (RS)-4-[(6-Fluoro-1H-indazol-5-yl)amino]-N-(propan-2-yl)-5,6,7,8-tetrahydro[1]benzothieno[2,3-d]pyrimidine-7-carboxamide]
  IC50: 10.2 nM

## CCOc1cc2[nH]ncc2cc1Nc1ncnc2sc3c(c12)CCC(C(=O)N(C)C(C)C)C3 (racemic) [Example 224, (RS)-4-[(6-Ethoxy-1H-indazol-5-yl)amino]-N-isopropyl-N-methyl-5,6,7,8-tetrahydro[1]benzothieno[2,3-d]pyrimidine-7-carboxamide]
  IC50: 0.6 nM

## CN(C)C(=O)C1CCc2c(sc3ncnc(Nc4cc5cn[nH]c5cc4OCCCCl)c23)C1 (racemic) [Example 267, (RS)-4-{[6-(3-Chloropropoxy)-1H-indazol-5-yl]amino}-N,N-dimethyl-5,6,7,8-tetrahydro[1]benzothieno[2,3-d]pyrimidine-7-carboxamide]
  IC50: 2.2 nM

## COc1cc2[nH]ncc2cc1Nc1ncnc2sc3c(c12)CCC(C(=O)N1CCC(C)(C)C1)C3 (racemic) [Example 180, (RS)-(3,3-Dimethylpyrrolidin-1-yl){4-[(6-methoxy-1H-indazol-5-yl)amino]-5,6,7,8-tetrahydro[1]benzothieno[2,3-d]pyrimidin-7-yl}methanone]
  IC50: 0.8 nM

## O=C(C1CCc2c(sc3ncnc(Nc4ccc5[nH]ncc5c4)c23)C1)N1CCN(C(=O)N2CCCC2)CC1 (stereo not shown) [Example 52, [4-(1H-Indazol-5-ylamino)-5,6,7,8-tetrahydro[1]benzothieno [2,3-d]pyrimidin-7-yl][4-(pyrrolidin-1-ylcarbonyl)piperazin-1-yl]methanone]
  IC50: 20 nM

## CC(C)(C)NC(=O)C1CCc2c(sc3ncnc(Nc4ccc5[nH]ncc5c4)c23)C1 (racemic) [Example 102, (RS)-N-tert-butyl-4-(1H-indazol-5-ylamino)-5,6,7,8-tetrahydro[1]benzothieno[2,3-d]pyrimidine-7-carboxamide]
  IC50: 14.9 nM

## Cn1cc(NC(=O)C2CCc3c(sc4ncnc(Nc5ccc6[nH]ncc6c5)c34)C2)cn1 (racemic) [Example 146, (RS)-4-(1H-indazol-5-ylamino)-N-(1-methyl-1H-pyrazol-4-yl)-5,6,7,8-tetrahydro[1]benzothieno[2,3-d]pyrimidine-7-carboxamide]
  IC50: 26.4 nM

## O=C(Nc1cccnc1)C1CCc2c(sc3ncnc(Nc4ccc5[nH]ncc5c4)c23)C1 (racemic) [Example 100, (RS)-4-(1H-indazol-5-ylamino)-N-(pyridin-3-yl)-5,6,7,8-tetrahydro[1]benzothieno[2,3-d]pyrimidine-7-carboxamide]
  IC50: 7.5 nM
